{"source": "patent US9504756B2", "about": "“Self-stabilizing linker conjugates” (priority 2012, dated 2016)", "assay": "Thiosuccinimide ring hydrolysis of IgG1 conjugates monitored by electrospray mass spectrometry", "format": "physicochemical", "details": "conjugated to reduced human IgG1; pH 7.4, 22° C.", "description": "The hydrolysis reaction rates of maleimido drug linkers following conjugation to antibody cysteines can be determined by mass spectrometry, as the hydrolyzed product has a molecular weight 18 daltons greater than the unhydrolyzed conjugate. Reduction of the interchain disulfides of a human IgG1 creates a single reduced cysteine on the light chain and three reduced cysteines on the heavy chain. The self-stabilizing maleimide drug-linker can then be conjugated to the reduced antibody at pH 7.4 and 22° C. and introduced to a high-resolution electrospray mass spectrometer via a reversed-phase HPLC column which separates the conjugated light and heavy chains. The masses of the conjugated light and heavy chains can thus be measured, and the peak intensities determined by standard mass spectrometry data processing software (e.g., MassLynx). By performing a series of injections over time, the disappearance of the peak corresponding to the mass of the original, unhydrolyzed conjugate and the appearance of the peak corresponding to the mass of the hydrolyzed conjugate can be monitored, the intensities of the peaks determined, and the percentage of hydrolyzed conjugate calculated at each timepoint. By plotting the hydrolysis percentage versus time, a curve is generated (e.g., using PRISM) which can be fit to a standard equation for exponential phenomena which includes a parameter for t1/2. […]"}
{"substance": "diaminopropionyl maleimide", "values": [{"measurement": "time for hydrolysis reaction approaching 100% completion", "value": "about 2 hours"}]}
